From patent publication US10988523B2, “Modified lipidated Relaxin B chain peptides and their therapeutic use” (Sanofi, priority 2018, dated 2021)
Where two headings read alike, the source gives them in different places. *1 amine or outer side, *2 acyl side, *3 side chain or, on linkers, in order; H or OH if unused. Where a SMILES comes first, the peptide text is derived from it. Side-chain parts run from the residue outwards. [ ]: non-standard residue; d: D form. The star is where a group is joined. PEG12 = NCCOCCOCCOCCOCCOCCOCCOCCOCCOCCOCCOCCOCCC(=O)O; Arachidoyl = CCCCCCCCCCCCCCCCCCCC(=O)*; γGlu = O=C(O)[C@H](CCC(=O)[*:2])N[*:1]; Stearoyl = CCCCCCCCCCCCCCCCCC(=O)*; Palmitoyl = CCCCCCCCCCCCCCCC(=O)*; αMeK = C[C@](N)(CCCCN)C(=O)O; Nle = CCCC[C@H](N)C(=O)O; AEEA = NCCOCCOCC(=O)O; Aib = CC(C)(N)C(=O)O

How the values were obtained:
RXFP1 = target: T1, RXFP1 (Homo sapiens, UniProt Q9HBX9); assay: OVCAR5 cAMP assay (HTRF), RXFP1 agonist activity; assay type: cell-based; details: for EC50: OVCAR5 cells, cAMP HTRF, read-out: EC50 (nM), OVCAR 5 cells (cAMP); for Emax: OVCAR-5, maximal cAMP relative to H2-relaxin maximum (100%), read-out: EMax, OVCAR 5 cells (cAMP)
T1 construct: OVCAR5 cells expressing endogenous RXFP1; endogenous in cells; host or cells: OVCAR5 cells
T1 sequence (Q9HBX9 1-757): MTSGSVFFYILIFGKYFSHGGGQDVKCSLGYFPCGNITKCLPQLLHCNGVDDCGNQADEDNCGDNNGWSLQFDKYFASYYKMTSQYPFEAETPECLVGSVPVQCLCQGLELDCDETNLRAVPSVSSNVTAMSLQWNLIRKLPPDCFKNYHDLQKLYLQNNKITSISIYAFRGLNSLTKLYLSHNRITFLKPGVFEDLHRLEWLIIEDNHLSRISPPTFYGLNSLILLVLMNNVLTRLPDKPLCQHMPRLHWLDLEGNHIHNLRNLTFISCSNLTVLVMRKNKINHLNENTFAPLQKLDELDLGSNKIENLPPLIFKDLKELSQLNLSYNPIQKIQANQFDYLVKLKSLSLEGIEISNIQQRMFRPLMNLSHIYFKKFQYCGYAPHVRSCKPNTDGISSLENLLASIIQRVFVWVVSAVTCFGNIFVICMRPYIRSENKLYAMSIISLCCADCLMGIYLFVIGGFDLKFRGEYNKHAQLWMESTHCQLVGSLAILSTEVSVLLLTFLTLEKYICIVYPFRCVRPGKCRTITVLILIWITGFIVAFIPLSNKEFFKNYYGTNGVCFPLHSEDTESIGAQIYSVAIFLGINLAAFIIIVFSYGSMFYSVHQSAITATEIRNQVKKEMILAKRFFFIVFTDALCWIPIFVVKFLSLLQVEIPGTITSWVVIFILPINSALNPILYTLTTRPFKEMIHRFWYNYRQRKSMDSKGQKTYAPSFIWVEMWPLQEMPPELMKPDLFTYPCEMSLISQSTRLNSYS
Procedure, shortened: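 cAMP accumulation readout: after 1 mM IBMX for 40 min, endogenous-RXFP1 OVCAR5 cells got rising peptide concentrations without FCS, 30 min, 37° C, then lysis with HTRF cAMP reagents. Nonlinear regression gave EC50; Emax expressed relative to H2-relaxin maximum, same occasion.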

[1] = Pharmacokinetic (PK) determination after i.v. or s.c. administration to rats; assay type: in vivo, Sprague Dawley rats; details: Rat PK; for half-life / Cmax / Tmax / bioavailability: plasma; for half-life: read-out: T½ (converted); for Cmax / Tmax: sc, 3 mg/kg s.c.; for bioavailability: subcutaneous, 3 mg/kg s.c. vs 1 mg/kg i.v., dose-corrected AUC ratio
Experimental: Prior to the testing of a peptide batch, its purity (HPLC-UV) was determined. Dose was corrected for presence of salts, solvent and purity.
Sprague Dawley rats were dosed with study peptide at a dose of 1 mg/kg intravenously (i.v.) or 3 mg/kg subcutaneously (s.c.) as a solution in PBS (0.2 mg/ml and 0.6 mg/ml respectively).
Plasma samples were analyzed after protein precipitation via liquid chromatography mass spectrometry (LC/MS).
PK parameters and half-life were calculated using Phoenix 64 (WinNonlin 6.4)-Pharsight (Certara™) (non-compartment model). Values below the limit of quantification (BLQ) were replaced by zero for subsequent calculations and PK analysis.
T½: in-vivo half life, time required for test compound plasma concentration to be divided by two during the PK experiment.
C0: Extrapolated test compound plasma concentration at t=0 time point (i.v. route).
Cmax: maximal test compound plasma concentration at the indicated time point (s.c. route).
Tmax: Time point where Cmax is attained.
F %: s.c. vs i.v. bioavailability, dose-corrected area under curve (AUC) s.c. route divided by AUC i.v.

[2] = Sprague Dawley, iv, 1 mg/kg i.v., extrapolated plasma concentration at t=0, read-out: C0
[3] = Sprague Dawley, iv, 1 mg/kg i.v.

EC50 (RXFP1) [nM] | Emax (RXFP1) [%] | C0 [1, 2] [nM] | half-life [1, 3] [h] | Cmax ([1]; Sprague Dawley) [nM] | Tmax ([1]; Sprague Dawley) [h] | bioavailability ([1]; Sprague Dawley) [%] | Compound | T½ (in-vivo half life) ([1]; 1 mg/kg i.v.) [h] | C0 ([1]; 1 mg/kg i.v., read-out: C0 (extrapolated plasma concentration at t=0)) [nM]
0.28 | 86 | 2500 | 5.3 | 1200 | 7 | 66 | CCCCCCCCCCCCCCCC(=O)N[C@@H](CCC(=O)N[C@@H](CCC(=O)NCCCC[C@H](NC(=O)CC[C@H](NC(=O)CC[C@H](NC(=O)COCCOCCNC(=O)COCCOCCNC(=O)COCCOCCNC(=O)COCCOCCNC(=O)[C@H](CCCCNC(C)=O)NC(=O)[C@H](C)NC(=O)[C@H](CCCNC(=N)N)NC(=O)[C@](C)(CCCCN)NC(=O)[C@H](CO)NC(=O)[C@H](Cc1ccccc1)NC(=O)[C@@H](NC(=O)[C@H](CO)NC(=O)[C@H](CCCC)NC(=O)CNC(=O)[C@H](CCC(=O)O)NC(=O)C(C)(C)NC(=O)C(C)(C)NC(=O)[C@@H](NC(=O)[C@H](CCCCNC(C)=O)NC(=O)[C@H](C)NC(=O)[C@H](CCCNC(=N)N)NC(=O)[C@@H](NC(=O)[C@H](CCCCN)NC(=O)[C@H](CCC(=O)O)NC(=O)[C@H](CCCNC(=N)N)NC(=O)CNC(=O)[C@H](CCC(=O)O)NC(=O)[C@H](CC(C)C)NC(C)=O)C(C)C)[C@@H](C)CC)[C@@H](C)O)C(=O)O)C(=O)O)C(N)=O)C(=O)O)C(=O)O [compound 160] (Ac-LEGREKVRAK(Ac)I[Aib][Aib]EG[Nle]STFS[αMeK]RAK(Ac)[AEEA][AEEA][AEEA][AEEA][γGlu][γGlu]K([γGlu-γGlu-Palmitoyl])-NH2) |  | 
0.01 | 91 | 3000 | 3.7 | 2000 | 5 | 65 | CCCCCCCCCCCCCCCCCC(=O)N[C@@H](CCC(=O)N[C@@H](CCC(=O)N[C@@H](CCC(=O)N[C@@H](CCC(=O)NCCCC[C@H](NC(=O)CCOCCOCCOCCOCCOCCOCCOCCOCCOCCOCCOCCOCCNC(=O)[C@H](CCCCNC(C)=O)NC(=O)[C@H](CCCCN)NC(=O)[C@H](CCCNC(=N)N)NC(=O)[C@](C)(CCCCN)NC(=O)[C@H](CO)NC(=O)[C@H](Cc1c[nH]c2ccccc12)NC(=O)[C@@H](NC(=O)[C@H](CO)NC(=O)[C@H](CCCC)NC(=O)CNC(=O)[C@H](CCC(=O)O)NC(=O)C(C)(C)NC(=O)C(C)(C)NC(=O)[C@@H](NC(=O)[C@H](CCCCNC(C)=O)NC(=O)[C@H](C)NC(=O)[C@H](CCCNC(=N)N)NC(=O)[C@@H](NC(=O)[C@H](CCCCN)NC(=O)[C@H](CCC(=O)O)NC(=O)[C@H](CCCNC(=N)N)NC(=O)CNC(=O)[C@H](CCC(=O)O)NC(=O)[C@H](CC(C)C)NC(C)=O)C(C)C)[C@@H](C)CC)[C@@H](C)O)C(N)=O)C(=O)O)C(=O)O)C(=O)O)C(=O)O [compound 42] (Ac-LEGREKVRAK(Ac)I[Aib][Aib]EG[Nle]STWS[αMeK]RKK(Ac)[PEG12]K([γGlu-γGlu-γGlu-γGlu-Stearoyl])-NH2) |  | 
 |  |  |  |  |  |  | H2-Relaxin: 6-kDa peptidic hormone of 53 amino acids; chain A (SEQ ID NO: 194) and chain B (SEQ ID NO: 195) cross-linked by disulfide bonds | 0.46 | 870
0.21 | 89 | 4370 | 7.16 | 2500 | 8 | 79 | CCCCCCCCCCCCCCCC(=O)N[C@@H](CCC(=O)N[C@@H](CCC(=O)N[C@@H](CCC(=O)NCCCC[C@H](NC(=O)CCOCCOCCOCCOCCOCCOCCOCCOCCOCCOCCOCCOCCNC(=O)[C@H](CCCCN)NC(=O)[C@H](CCCNC(=N)N)NC(=O)C(C)(C)NC(=O)[C@H](CO)NC(=O)[C@H](Cc1c[nH]c2ccccc12)NC(=O)[C@@H](NC(=O)[C@H](CO)NC(=O)[C@H](CCCC)NC(=O)CNC(=O)[C@H](CCC(=O)O)NC(=O)C(C)(C)NC(=O)C(C)(C)NC(=O)[C@@H](NC(=O)[C@H](CCCCNC(C)=O)NC(=O)[C@H](C)NC(=O)[C@H](CCCNC(=N)N)NC(=O)[C@@H](NC(=O)[C@H](CCCCN)NC(=O)[C@H](CCC(=O)O)NC(=O)[C@H](CCCNC(=N)N)NC(=O)CNC(=O)[C@H](CCC(=O)O)NC(=O)[C@H](CC(C)C)NC(C)=O)C(C)C)[C@@H](C)CC)[C@@H](C)O)C(N)=O)C(=O)O)C(=O)O)C(=O)O [compound 38] (Ac-LEGREKVRAK(Ac)I[Aib][Aib]EG[Nle]STWS[Aib]RK[PEG12]K([γGlu-γGlu-γGlu-Palmitoyl])-NH2) |  | 
0.11 | 91 |  |  |  |  |  | CCCCCCCCCCCCCCCC(=O)N[C@@H](CCC(=O)N[C@@H](CCC(=O)N[C@@H](CCC(=O)NCCOCCOCC(=O)NCCOCCOCC(=O)NCCCC[C@H](NC(=O)[C@H](CCCCN)NC(=O)[C@H](CCCCN)NC(=O)[C@H](CCCNC(=N)N)NC(=O)C(C)(C)NC(=O)[C@H](CO)NC(=O)[C@H](Cc1c[nH]c2ccccc12)NC(=O)[C@@H](NC(=O)[C@H](CO)NC(=O)[C@H](CCCC)NC(=O)CNC(=O)[C@H](CCC(=O)O)NC(=O)C(C)(C)NC(=O)C(C)(C)NC(=O)[C@@H](NC(=O)[C@H](CCCCNC(C)=O)NC(=O)[C@H](C)NC(=O)[C@H](CCCNC(=N)N)NC(=O)[C@@H](NC(=O)[C@H](CCCCN)NC(=O)[C@H](CCC(=O)O)NC(=O)[C@H](CCCNC(=N)N)NC(=O)CNC(=O)[C@H](CCC(=O)O)NC(=O)[C@H](CC(C)C)NC(C)=O)C(C)C)[C@@H](C)CC)[C@@H](C)O)C(N)=O)C(=O)O)C(=O)O)C(=O)O [compound 60] (Ac-LEGREKVRAK(Ac)I[Aib][Aib]EG[Nle]STWS[Aib]RKKK([AEEA-AEEA-γGlu-γGlu-γGlu-Palmitoyl])-NH2) |  | 
0.18 | 83 |  |  |  |  |  | CCCCCCCCCCCCCCCCCCCC(=O)N[C@@H](CCC(=O)N[C@@H](CCC(=O)N[C@@H](CCC(=O)NCCOCCOCC(=O)NCCOCCOCC(=O)NCCOCCOCC(=O)NCCCC[C@H](NC(=O)[C@H](CCCCNC(C)=O)NC(=O)[C@H](CCCCN)NC(=O)[C@H](CCCNC(=N)N)NC(=O)C(C)(C)NC(=O)[C@H](CO)NC(=O)[C@H](Cc1c[nH]c2ccccc12)NC(=O)[C@@H](NC(=O)[C@H](CO)NC(=O)[C@H](CCCC)NC(=O)CNC(=O)[C@H](CCC(=O)O)NC(=O)C(C)(C)NC(=O)C(C)(C)NC(=O)[C@@H](NC(=O)[C@H](CCCCNC(C)=O)NC(=O)[C@H](C)NC(=O)[C@H](CCCNC(=N)N)NC(=O)[C@@H](NC(=O)[C@H](CCCCN)NC(=O)[C@H](CCC(=O)O)NC(=O)[C@H](CCCNC(=N)N)NC(=O)CNC(=O)[C@H](CCC(=O)O)NC(=O)[C@H](CC(C)C)NC(C)=O)C(C)C)[C@@H](C)CC)[C@@H](C)O)C(N)=O)C(=O)O)C(=O)O)C(=O)O [compound 171] (Ac-LEGREKVRAK(Ac)I[Aib][Aib]EG[Nle]STWS[Aib]RKK(Ac)K([AEEA-AEEA-AEEA-γGlu-γGlu-γGlu-Arachidoyl])-NH2) |  | 
